# Assay results taken from the supplement of paper PMC10331698.
# ± gives the standard deviation of the averaged measurements.
# Experiments:
# Experiment in all cases: level (log10 ratio to DMSO vehicle control); higher = higher biomarker level / cell amount than vehicle control
# Heptafluorobutyl iodide = compound: FC(F)(F)C(F)(F)C(F)(F)CI [Heptafluorobutyl iodide]; conditions: in DMSO
# Procedure: (§1)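 BioMAP Diversity Plus panel of 12 human primary cell co-culture systems (3C, 4H, LPS, SAg, BT, BF4T, BE3C, CASM3C, HDF3CGF, KF3CT, MyoF, Mphg). Compounds were added 1 h before stimulation and left for 24 h (MyoF 48 h; BT 72 h for soluble read-outs or 6 d for IgG). Biomarkers were read by ELISA, cytotoxicity by SRB, PBMC viability and proliferation by Alamar Blue. Each well value was divided by the mean of 8 DMSO control wells on the same plate and log10 transformed; duplicate blinded samples were tested at 4 concentrations.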
# [1] = compound: O=S(=O)(O)C(F)(F)C(F)(F)C(F)(F)C(F)(F)C(F)(F)C(F)(F)C(F)(F)C(F)(F)C(F)(F)C(F)(F)F [Sodium perfluorodecanesulfonate]; conditions: in DMSO
# Procedure: as §1
# [2] = compound: O=C(O)C=CC(F)(C(F)(F)F)C(F)(F)F [3-(Perfluoroisopropyl)-2-propenoic acid]; conditions: in DMSO
# Procedure: as §1
# Nonafluoropentanamide = compound: NC(=O)C(F)(F)C(F)(F)C(F)(F)C(F)(F)F [Nonafluoropentanamide]; conditions: in DMSO
# Procedure: as §1
# [3] = compound: C=C(C)C(=O)OCCC(F)(F)C(F)(F)C(F)(F)C(F)(F)C(F)(F)C(F)(F)F [6:2 Fluorotelomer methacrylate]; conditions: in DMSO
# Procedure: as §1
# [4] = compound: C=CC(=O)OCC(F)(F)C(F)(F)C(F)(F)COC(=O)C=C [1H,1H,5H,5H-Perfluoro-1,5-pentanediol diacrylate]; conditions: 6700 nM; in DMSO
# Procedure: as §1
# [5] = compound: O=C(O)C(F)(F)C(F)(F)C(F)(F)C(F)(F)C(F)(F)C(F)(F)C(F)(F)C(F)(F)C(F)(F)C(F)F [11-H-Perfluoroundecanoic acid]; conditions: in DMSO
# Procedure: as §1
# Hexafluoroamylene glycol = compound: OCC(F)(F)C(F)(F)C(F)(F)CO [Hexafluoroamylene glycol]; conditions: in DMSO
# Procedure: as §1
# [6] = compound: O=S(=O)(O)CCC(F)(F)C(F)(F)C(F)(F)C(F)(F)C(F)(F)C(F)(F)F [6:2 Fluorotelomer sulfonic acid]; conditions: in DMSO
# Procedure: as §1
# [7] = compound: NC(=O)C(F)(F)C(F)(F)C(F)(F)C(F)F; conditions: in DMSO
# Procedure: as §1
# [8] = compound: FC(F)(F)C(F)(F)C(F)(F)C(F)(F)C(F)(F)C(F)(F)C(F)(F)I [1-Iodopentadecafluoroheptane]; conditions: in DMSO
# Procedure: as §1
# [9] = compound: O=S(=O)(Cl)C(F)(F)C(F)(F)C(F)(F)C(F)(F)C(F)(F)C(F)(F)C(F)(F)C(F)(F)F [Perfluoro-1-octanesulfonyl chloride]; conditions: in DMSO
# Procedure: as §1
# [10] = compound: NS(=O)(=O)C(F)(F)C(F)(F)C(F)(F)C(F)(F)C(F)(F)C(F)(F)F [Perfluorohexanesulfonamide]; conditions: in DMSO
# Procedure: as §1
# [11] = compound: COC(=O)C(F)(F)C(F)(F)OC(F)(C(F)(F)F)C(F)(F)OC(F)=C(F)F [Methyl perfluoro(3-(1-ethenyloxypropan-2-yloxy)propanoate)]; conditions: in DMSO
# Procedure: as §1
# [12] = compound: FC(F)(F)C(F)(F)CNCC(F)(F)C(F)(F)F [Bis(1H,1H-perfluoropropyl)amine]; conditions: in DMSO
# Procedure: as §1
# Octafluoroadipamide = compound: NC(=O)C(F)(F)C(F)(F)C(F)(F)C(F)(F)C(N)=O [Octafluoroadipamide]; conditions: in DMSO
# Procedure: as §1
# [13] = compound: FC(F)(F)C(F)(F)C(F)(F)CC1CO1 [1H,1H-Heptafluorobutyl epoxide]; conditions: in DMSO
# Procedure: as §1
# [14] = compound: O=S(=O)(F)C(F)(F)C(F)(F)C(F)(F)C(F)(F)C(F)(F)C(F)(F)C(F)(F)C(F)(F)F [Perfluorooctanesulfonyl fluoride]; conditions: in DMSO
# Procedure: as §1
# [15] = compound: FC(F)(F)C(F)(F)C(F)(F)C(F)(F)C(F)(F)C(F)(F)CC1CO1 [3-(Perfluorohexyl)-1,2-epoxypropane]; conditions: in DMSO
# Procedure: as §1
test system,measurement,setting,value
3C:CCL2/MCP-1,level (log10),Heptafluorobutyl iodide; 6700 nM,0.014 ± 0.051
same,level (log10),Heptafluorobutyl iodide; 20000 nM,-0.014 ± 0.041
same,level (log10),Heptafluorobutyl iodide; 60000 nM,0.007 ± 0.037
same,level (log10),[1]; 1500 nM,0.0315 ± 0.005
same,level (log10),[1]; 4400 nM,-0.0195 ± 0.026
same,level (log10),[1]; 13000 nM,0.005 ± 0.033
same,level (log10),[1]; 40000 nM,0.0655 ± 0.032
same,level (log10),[2]; 6700 nM,0.0025 ± 0.022
same,level (log10),[2]; 20000 nM,-0.009 ± 0.0014
same,level (log10),[2]; 60000 nM,0.019 ± 0.02
same,level (log10),Nonafluoropentanamide; 6700 nM,-0.0045 ± 0.016
same,level (log10),Nonafluoropentanamide; 20000 nM,-0.0125 ± 0.018
same,level (log10),Nonafluoropentanamide; 60000 nM,0.011 ± 0.058
same,level (log10),[3]; 6700 nM,0.01 ± 0.051
same,level (log10),[3]; 20000 nM,-0.0025 ± 0.016
same,level (log10),[3]; 60000 nM,0.022 ± 0.028
same,level (log10),[4],-0.026 ± 0.0042
same,level (log10),[5]; 6700 nM,-0.0085 ± 0.0035
same,level (log10),[5]; 20000 nM,0 ± 0.017
same,level (log10),Hexafluoroamylene glycol; 6700 nM,-0.024 ± 0.013
same,level (log10),Hexafluoroamylene glycol; 20000 nM,-0.013 ± 0.0042
same,level (log10),Hexafluoroamylene glycol; 60000 nM,-0.003
same,level (log10),[6]; 6700 nM,-0.0095 ± 0.021
same,level (log10),[6]; 20000 nM,-0.017 ± 0.024
same,level (log10),[6]; 60000 nM,0.012 ± 0.0071
same,level (log10),[7]; 6700 nM,-0.01 ± 0.013
same,level (log10),[7]; 20000 nM,-0.0135 ± 0.011
same,level (log10),[7]; 60000 nM,0.015 ± 0.042
same,level (log10),[8]; 6700 nM,-0.0175 ± 0.005
same,level (log10),[8]; 20000 nM,0.023 ± 0.027
same,level (log10),[9]; 6700 nM,-0.009 ± 0.0085
same,level (log10),[9]; 20000 nM,-0.0025 ± 0.0092
same,level (log10),[9]; 60000 nM,0.017 ± 0.0014
same,level (log10),[10]; 6700 nM,0.0075 ± 0.0021
same,level (log10),[10]; 20000 nM,0.001 ± 0.014
same,level (log10),[10]; 60000 nM,-0.0255 ± 0.032
same,level (log10),[11]; 6700 nM,0.0045 ± 0.0064
same,level (log10),[11]; 20000 nM,0.0175 ± 0.032
same,level (log10),[12]; 6700 nM,0.004 ± 0.031
same,level (log10),[12]; 20000 nM,-0.0225 ± 0.012
same,level (log10),[12]; 60000 nM,0.006 ± 0.016
same,level (log10),Octafluoroadipamide; 6700 nM,-0.0065 ± 0.016
same,level (log10),Octafluoroadipamide; 20000 nM,-0.002 ± 0.0014
same,level (log10),Octafluoroadipamide; 60000 nM,0.03 ± 0.013
same,level (log10),[13]; 6700 nM,0.0005 ± 0.0064
same,level (log10),[13]; 20000 nM,-0.011 ± 0.0071
same,level (log10),[13]; 60000 nM,-0.0025 ± 0.023
same,level (log10),[14]; 6700 nM,-0.014 ± 0.0014
same,level (log10),[14]; 20000 nM,-0.0215 ± 0.011
same,level (log10),[14]; 60000 nM,0.001 ± 0.021
same,level (log10),[15]; 6700 nM,0.011 ± 0.02
same,level (log10),[15]; 20000 nM,-0.004 ± 0.0014
same,level (log10),[15]; 60000 nM,0.021 ± 0.031
3C:CD62E/E-Selectin,level (log10),Heptafluorobutyl iodide; 6700 nM,-0.012 ± 0.024
same,level (log10),Heptafluorobutyl iodide; 20000 nM,-0.0115 ± 0.0021
same,level (log10),Heptafluorobutyl iodide; 60000 nM,-0.0165 ± 0.03
same,level (log10),[1]; 1500 nM,0.0005 ± 0.0035
same,level (log10),[1]; 4400 nM,0.002 ± 0.0071
same,level (log10),[1]; 13000 nM,0.0185 ± 0.028
same,level (log10),[1]; 40000 nM,0.057 ± 0.05
same,level (log10),[2]; 6700 nM,-0.009 ± 0.013
same,level (log10),[2]; 20000 nM,-0.031 ± 0.0085
same,level (log10),[2]; 60000 nM,-0.0155 ± 0.013
same,level (log10),Nonafluoropentanamide; 6700 nM,-0.014 ± 0.025
same,level (log10),Nonafluoropentanamide; 20000 nM,-0.017 ± 0.031
same,level (log10),Nonafluoropentanamide; 60000 nM,0.0085 ± 0.011
same,level (log10),[3]; 6700 nM,-0.0145 ± 0.015
same,level (log10),[3]; 20000 nM,-0.01 ± 0.033
same,level (log10),[3]; 60000 nM,-0.0135 ± 0.035
same,level (log10),[4],-0.135 ± 0.049
same,level (log10),[5]; 6700 nM,-0.0045 ± 0.025
same,level (log10),[5]; 20000 nM,0.0205 ± 0.013
same,level (log10),Hexafluoroamylene glycol; 6700 nM,-0.0185 ± 0.037
same,level (log10),Hexafluoroamylene glycol; 20000 nM,-0.021 ± 0.025
same,level (log10),Hexafluoroamylene glycol; 60000 nM,-0.012 ± 0.0014
same,level (log10),[6]; 6700 nM,-0.021 ± 0.034
same,level (log10),[6]; 20000 nM,0.003 ± 0.048
same,level (log10),[6]; 60000 nM,0.026 ± 0.038
same,level (log10),[7]; 6700 nM,-0.0055 ± 0.022
same,level (log10),[7]; 20000 nM,-0.027 ± 0.0014
same,level (log10),[7]; 60000 nM,-0.016 ± 0.018
same,level (log10),[8]; 6700 nM,-0.0085 ± 0.00071
same,level (log10),[8]; 20000 nM,-0.003 ± 0.011
same,level (log10),[9]; 6700 nM,-0.017 ± 0.0071
same,level (log10),[9]; 20000 nM,0.0135 ± 0.021
same,level (log10),[9]; 60000 nM,0.11 ± 0.021
same,level (log10),[10]; 6700 nM,-0.0065 ± 0.016
same,level (log10),[10]; 20000 nM,-0.034 ± 0.0014
same,level (log10),[10]; 60000 nM,-0.0595 ± 0.013
same,level (log10),[11]; 6700 nM,-0.034 ± 0.011
same,level (log10),[11]; 20000 nM,-0.031 ± 0.013
same,level (log10),[12]; 6700 nM,-0.0115 ± 0.0092
same,level (log10),[12]; 20000 nM,-0.0105 ± 0.022
same,level (log10),[12]; 60000 nM,0.008 ± 0.024
same,level (log10),Octafluoroadipamide; 6700 nM,-0.0175 ± 0.011
same,level (log10),Octafluoroadipamide; 20000 nM,-0.0115 ± 0.0064
same,level (log10),Octafluoroadipamide; 60000 nM,0.012 ± 0.016
same,level (log10),[13]; 6700 nM,-0.011 ± 0.023
same,level (log10),[13]; 20000 nM,0.002 ± 0.013
same,level (log10),[13]; 60000 nM,0.0075 ± 0.0035
same,level (log10),[14]; 6700 nM,-0.006 ± 0.0057
same,level (log10),[14]; 20000 nM,-0.01
same,level (log10),[14]; 60000 nM,-0.006 ± 0.024
same,level (log10),[15]; 6700 nM,-0.035 ± 0.013
same,level (log10),[15]; 20000 nM,-0.0375 ± 0.005
same,level (log10),[15]; 60000 nM,-0.0415 ± 0.0078
